Laboratory results: the supplement of paper PMC13207355

Columns and labels:
Details in all cases: exposure time: 72 h
[1] = test system: E21 (patient-derived glioblastoma stem cells of mesenchymal subtype); test: phenotypic distance (Euclidean, principal components) from DMSO controls (arbitrary units); higher = stronger morphological change
[2] = test system: FT3469 (normal neural stem cell line); test: as above
[3] = test system: E28 (patient-derived glioblastoma stem cells of classical subtype); test: as above
[4] = test system: E57 (patient-derived glioblastoma stem cells of mesenchymal subtype); test: as above
[5] = test system: E34 (patient-derived glioblastoma stem cells of proneural subtype); test: as above
[6] = test system: E13 (patient-derived glioblastoma stem cells of classical subtype); test: as above
[7] = test system: E31 (patient-derived glioblastoma stem cells of proneural subtype); test: as above
[8] = test system: E21; test: surviving fraction (nuclei count normalised to DMSO); higher = more cells surviving (less toxic)
[9] = test system: FT3469; test: as above
[10] = test system: E28; test: as above
[11] = test system: E57; test: as above
[12] = test system: E34; test: as above
[13] = test system: E13; test: as above
[14] = test system: E31; test: as above
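Wherever phenotypic distance (Euclidean, principal components) from DMSO controls is given: cell Painting imaging in 384-well plates, CellProfiler features reduced to at least 20 principal components, Euclidean distance versus same-plate DMSO vehicle wells (0.1% v/v), median over six images per well.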
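Wherever surviving fraction (nuclei count normalised to DMSO) is given: nuclei counted by high-content imaging of Hoechst-stained cells in laminin-coated 384-well plates, relative to 0.1% DMSO vehicle wells, with staurosporine as cell-death control.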

CN(C(=O)CN(CCO)CC(=O)N(C)C(C)(C)Cc1ccccc1)C(C)(C)Cc1ccccc1 [Oxethazaine]
Details | phenotypic distance | surviving fraction
[1], 4.1 nM | 1.27 | –
[1], 12.3 nM | 0.301 | –
[1], 37 nM | 0.673 | –
[1], 111.1 nM | 0.767 | –
[1], 333.3 nM | 0.702 | –
[1], 1000 nM | 0.599 | –
[1], 3000 nM | 0.942 | –
[2], 4.1 nM | 1.79 | –
[2], 12.3 nM | 0.53 | –
[2], 37 nM | 0.88 | –
[2], 111.1 nM | 0.534 | –
[2], 333.3 nM | 0.669 | –
[2], 1000 nM | 0.43 | –
[2], 3000 nM | 1.12 | –
[3], 4.1 nM | 0.766 | –
[3], 12.3 nM | 0.639 | –
[3], 37 nM | 0.581 | –
[3], 111.1 nM | 0.521 | –
[3], 333.3 nM | 0.535 | –
[3], 1000 nM | 0.928 | –
[3], 3000 nM | 0.763 | –
[4], 4.1 nM | 0.467 | –
[4], 12.3 nM | 0.582 | –
[4], 37 nM | 0.373 | –
[4], 111.1 nM | 0.789 | –
[4], 333.3 nM | 0.553 | –
[4], 1000 nM | 0.494 | –
[4], 3000 nM | 1.79 | –
[5], 4.1 nM | 0.701 | –
[5], 12.3 nM | 0.608 | –
[5], 37 nM | 0.585 | –
[5], 111.1 nM | 0.716 | –
[5], 333.3 nM | 0.77 | –
[5], 1000 nM | 0.595 | –
[5], 3000 nM | 0.878 | –
[6], 4.1 nM | 0.675 | –
[6], 12.3 nM | 0.799 | –
[6], 37 nM | 3.23 | –
[6], 111.1 nM | 0.762 | –
[6], 333.3 nM | 0.641 | –
[6], 1000 nM | 3.59 | –
[6], 3000 nM | 0.501 | –
[7], 4.1 nM | 1.19 | –
[7], 12.3 nM | 0.518 | –
[7], 37 nM | 0.559 | –
[7], 111.1 nM | 0.664 | –
[7], 333.3 nM | 0.743 | –
[7], 1000 nM | 0.675 | –
[7], 3000 nM | 1.16 | –
[8], 4.1 nM | – | 0.958
[8], 12.3 nM | – | 1
[8], 37 nM | – | 1.03
[8], 111.1 nM | – | 0.955
[8], 333.3 nM | – | 1.12
[8], 1000 nM | – | 0.969
[8], 3000 nM | – | 1.08
[9], 4.1 nM | – | 0.961
[9], 12.3 nM | – | 0.979
[9], 37 nM | – | 1.02
[9], 111.1 nM | – | 1.05
[9], 333.3 nM | – | 0.978
[9], 1000 nM | – | 1.1
[9], 3000 nM | – | 0.933
[10], 4.1 nM | – | 1.08
[10], 12.3 nM | – | 0.989
[10], 37 nM | – | 1.05
[10], 111.1 nM | – | 0.943
[10], 333.3 nM | – | 1.15
[10], 1000 nM | – | 1
[10], 3000 nM | – | 1.16
[11], 4.1 nM | – | 1.01
[11], 12.3 nM | – | 0.936
[11], 37 nM | – | 0.966
[11], 111.1 nM | – | 0.964
[11], 333.3 nM | – | 0.991
[11], 1000 nM | – | 0.948
[11], 3000 nM | – | 1
[12], 4.1 nM | – | 1.02
[12], 12.3 nM | – | 0.88
[12], 37 nM | – | 1.05
[12], 111.1 nM | – | 0.971
[12], 333.3 nM | – | 1.19
[12], 1000 nM | – | 1.2
[12], 3000 nM | – | 0.914
[13], 4.1 nM | – | 1.09
[13], 12.3 nM | – | 0.968
[13], 37 nM | – | 0.928
[13], 111.1 nM | – | 1.04
[13], 333.3 nM | – | 1.07
[13], 1000 nM | – | 0.99
[13], 3000 nM | – | 0.951
[14], 4.1 nM | – | 0.961
[14], 12.3 nM | – | 0.975
[14], 37 nM | – | 1.03
[14], 111.1 nM | – | 0.93
[14], 333.3 nM | – | 1.09
[14], 1000 nM | – | 1.01
[14], 3000 nM | – | 1.01

CCCCC1C(=O)N(c2ccccc2)N(c2ccc(O)cc2)C1=O (stereo unspecified) [Oxyphenbutazone]
Details | phenotypic distance | surviving fraction
[1], 4.1 nM | 0.965 | –
[1], 12.3 nM | 0.677 | –
[1], 37 nM | 0.635 | –
[1], 111.1 nM | 0.699 | –
[1], 333.3 nM | 0.588 | –
[1], 1000 nM | 0.698 | –
[1], 3000 nM | 0.735 | –
[2], 4.1 nM | 0.918 | –
[2], 12.3 nM | 0.982 | –
[2], 37 nM | 0.908 | –
[2], 111.1 nM | 0.496 | –
[2], 333.3 nM | 0.356 | –
[2], 1000 nM | 0.51 | –
[2], 3000 nM | 0.472 | –
[3], 4.1 nM | 0.723 | –
[3], 12.3 nM | 0.56 | –
[3], 37 nM | 0.689 | –
[3], 111.1 nM | 0.5 | –
[3], 333.3 nM | 0.608 | –
[3], 1000 nM | 0.532 | –
[3], 3000 nM | 0.618 | –
[4], 4.1 nM | 0.925 | –
[4], 12.3 nM | 0.967 | –
[4], 37 nM | 0.794 | –
[4], 111.1 nM | 0.629 | –
[4], 333.3 nM | 0.441 | –
[4], 1000 nM | 0.546 | –
[4], 3000 nM | 0.652 | –
[5], 4.1 nM | 0.618 | –
[5], 12.3 nM | 0.62 | –
[5], 37 nM | 0.522 | –
[5], 111.1 nM | 0.833 | –
[5], 333.3 nM | 0.434 | –
[5], 1000 nM | 1.17 | –
[5], 3000 nM | 0.608 | –
[6], 4.1 nM | 0.562 | –
[6], 12.3 nM | 0.782 | –
[6], 37 nM | 0.706 | –
[6], 111.1 nM | 0.835 | –
[6], 333.3 nM | 1.34 | –
[6], 1000 nM | 0.708 | –
[6], 3000 nM | 0.404 | –
[7], 4.1 nM | 0.939 | –
[7], 12.3 nM | 1.97 | –
[7], 37 nM | 0.848 | –
[7], 111.1 nM | 0.364 | –
[7], 333.3 nM | 0.728 | –
[7], 1000 nM | 0.522 | –
[7], 3000 nM | 0.632 | –
[8], 4.1 nM | – | 1.04
[8], 12.3 nM | – | 1.09
[8], 37 nM | – | 0.947
[8], 111.1 nM | – | 1.05
[8], 333.3 nM | – | 0.957
[8], 1000 nM | – | 1.05
[8], 3000 nM | – | 1.1
[9], 4.1 nM | – | 0.985
[9], 12.3 nM | – | 0.955
[9], 37 nM | – | 0.951
[9], 111.1 nM | – | 1.13
[9], 333.3 nM | – | 1.03
[9], 1000 nM | – | 0.989
[9], 3000 nM | – | 1.08
[10], 4.1 nM | – | 1.06
[10], 12.3 nM | – | 1.05
[10], 37 nM | – | 1.06
[10], 111.1 nM | – | 1.06
[10], 333.3 nM | – | 0.96
[10], 1000 nM | – | 1.02
[10], 3000 nM | – | 1.07
[11], 4.1 nM | – | 1.04
[11], 12.3 nM | – | 1.02
[11], 37 nM | – | 0.983
[11], 111.1 nM | – | 0.979
[11], 333.3 nM | – | 1.06
[11], 1000 nM | – | 0.965
[11], 3000 nM | – | 0.938
[12], 4.1 nM | – | 0.971
[12], 12.3 nM | – | 1.07
[12], 37 nM | – | 0.978
[12], 111.1 nM | – | 1.07
[12], 333.3 nM | – | 1.04
[12], 1000 nM | – | 1.11
[12], 3000 nM | – | 1.01
[13], 4.1 nM | – | 1.06
[13], 12.3 nM | – | 1.12
[13], 37 nM | – | 0.991
[13], 111.1 nM | – | 1.1
[13], 333.3 nM | – | 1.11
[13], 1000 nM | – | 1.04
[13], 3000 nM | – | 0.978
[14], 4.1 nM | – | 0.93
[14], 12.3 nM | – | 0.906
[14], 37 nM | – | 0.918
[14], 111.1 nM | – | 1.01
[14], 333.3 nM | – | 0.939
[14], 1000 nM | – | 1.07
[14], 3000 nM | – | 0.941
